Laboratory results from patent publication US5187165A, “Memory enhancing and analgesic 1,2,3a,8,8a-hexahydro-3a,8(and 1,3a,8)-di(and tri)methylpyrrolo[2,3-b]indoles” (priority 1988, dated 1993).
Counter-ions that a name gives are not always drawn.

Experiments:
[1] = system: scopolamine-induced memory deficit; experiment: Dark Avoidance Assay (scopolamine induced memory deficit reversal); assay type: in vivo, mice; conditions: Mus musculus, sc, 24 h, read-out: % of Animals with Scopolamine Induced Memory Deficit Reversal
Method: In this assay mice are tested for their ability to remember an unpleasant stimulus for a period of 24 hours. A mouse is placed in a chamber that contains a dark compartment; a strong incandescent light drives it to the dark compartment, where an electric shock is administered through metal plates on the floor. The animal is removed from the testing apparatus and tested again, 24 hours later, for the ability to remember the electric shock.
If scopolamine, an anticholinergic that is known to cause memory impairment, is administered before an animal's initial exposure to the test chamber, the animal re-enters the dark compartment shortly after being placed in the test chamber 24 hours later. This effect of scopolamine is blocked by an active test compound, resulting in a greater interval before re-entry into the dark compartment.
The results for an active compound are expressed as the percent of a group of animals in which the effect of scopolamine is blocked, as manifested by an increased interval between being placed in the test chamber and re-entering the dark compartment.

norepinephrine uptake [2] = assay type: biochemical; conditions: rat brain synaptosomes, 50 nM 3H-NE, 37° C., 5 min; read-out: Reuptake Inhibition of neurotransmitters, Norepinephrine
Acute toxicity (LD50) = assay type: in vivo; conditions: death within 24 hours; for LD50 at 24 h: in vivo, ip; for LD50: i.p., 1440 min
Method: LD50 is determined by the dose (mg/kg) at which 50% of the test animals die within 24 hours. In many cases this dose is an approximation.

yohimbine toxicity = experiment: animal or person; assay type: in vivo, mice; conditions: for ED50: Mus musculus, po, 18 h, read-out: YTP ED50
Method: The potentiation of yohimbine toxicity is considered an additional test for screening antidepressant drugs. The method used in this invention is as follows:
Male mice weighing 20 to 30 grams are used. They are housed under standard laboratory conditions with free access to food and water. Compounds are dissolved in distilled water and a suitable surfactant is added in case of poor solubility. Yohimbine hydrochloride is dissolved in distilled water as well. Both compound and yohimbine are administered in a volume of […].
Compounds and vehicle are administered orally 60 minutes prior to a sublethal dose (30 mg/kg s.c.) of yohimbine hydrochloride which alone causes death in about […] of mice (4 out of 400). Ten mice per group are then placed in plastic cages (26×10×16 cm) with food and water available ad libitum. Mortality rate is assessed 18 hours postdosing. ED50 is defined as dose of drug causing death in 5/10 mice and is calculated by probit analysis.

norepinephrine uptake [3] = conditions: background statement; cited from earlier work
[4] = target: T1, butyrylcholinesterase (Serum AChE) (Homo sapiens, UniProt P06276); conditions: background statement; cited from earlier work
T1 construct: A vial of lyophilized human serum; purchased Biodynamics, Houston, Tex; (Precilip); host or cells: lyophilized human serum, reconstituted in water; enzyme not purified
T1 sequence (P06276 29-602): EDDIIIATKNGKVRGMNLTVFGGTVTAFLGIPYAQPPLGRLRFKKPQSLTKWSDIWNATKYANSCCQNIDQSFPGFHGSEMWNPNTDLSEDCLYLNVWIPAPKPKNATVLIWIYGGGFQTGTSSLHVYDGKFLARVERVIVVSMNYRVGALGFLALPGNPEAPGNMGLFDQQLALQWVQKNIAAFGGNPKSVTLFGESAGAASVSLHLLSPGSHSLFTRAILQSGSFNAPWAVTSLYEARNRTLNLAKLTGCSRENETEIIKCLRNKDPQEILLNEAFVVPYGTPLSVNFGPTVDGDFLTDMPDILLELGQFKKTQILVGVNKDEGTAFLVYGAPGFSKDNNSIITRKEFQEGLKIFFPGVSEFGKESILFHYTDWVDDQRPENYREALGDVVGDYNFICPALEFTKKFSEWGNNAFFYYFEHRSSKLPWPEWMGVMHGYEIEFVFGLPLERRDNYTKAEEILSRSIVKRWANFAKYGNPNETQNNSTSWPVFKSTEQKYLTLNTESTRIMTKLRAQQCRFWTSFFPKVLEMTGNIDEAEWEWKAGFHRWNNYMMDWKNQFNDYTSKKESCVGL

butyrylcholinesterase = conditions: ex vivo; cited from earlier work
[5] = target: T2, acetylcholinesterase (Brain AChE) (Rattus norvegicus, UniProt P37136); experiment: In Vitro Inhibition of Acetylcholinesterase Activity in Rat Striatum; assay type: biochemical
T2 construct: corpora striata dissected free, weighed and homogenized in 19 volumes; from tissue; host or cells: corpora striata of male Wistar rats, crude homogenate in phosphate buffer
T2 sequence (P37136 32-614): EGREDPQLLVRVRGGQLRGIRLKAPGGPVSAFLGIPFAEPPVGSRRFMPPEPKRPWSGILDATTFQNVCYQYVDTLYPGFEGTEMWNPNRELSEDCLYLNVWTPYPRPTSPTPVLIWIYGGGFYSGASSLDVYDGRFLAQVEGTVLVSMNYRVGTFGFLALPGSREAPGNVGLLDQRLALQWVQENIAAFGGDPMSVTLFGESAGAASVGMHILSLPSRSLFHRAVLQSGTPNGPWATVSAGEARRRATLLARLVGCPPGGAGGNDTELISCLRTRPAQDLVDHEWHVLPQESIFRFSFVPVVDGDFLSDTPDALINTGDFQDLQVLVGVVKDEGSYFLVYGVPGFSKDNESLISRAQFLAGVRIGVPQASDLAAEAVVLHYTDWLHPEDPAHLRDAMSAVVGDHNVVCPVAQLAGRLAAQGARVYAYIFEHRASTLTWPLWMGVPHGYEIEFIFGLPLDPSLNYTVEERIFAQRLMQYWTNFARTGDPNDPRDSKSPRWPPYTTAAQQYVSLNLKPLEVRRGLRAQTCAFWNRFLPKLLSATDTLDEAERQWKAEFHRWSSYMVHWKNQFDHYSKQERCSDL
From the text: (§1) Cholinesterases are found throughout the body, both in the brain and in serum. However, only brain acetylcholinesterase (AChE) distribution is correlated with central cholinergic innervation. […] We have determined in vitro inhibition of acetylcholinesterase activity in rat striatum and in vitro inhibition of butrylcholinesterase activity in human serum according to the methods described below.
The method described below was used in this invention for assaying cholinesterase activity. This is a modification of the method of Ellman et al., Biochem. Pharmacol. 7, 98 (1961).
1. 0.05M Phosphate buffer, pH 7.2
(§2) (a) 9.9 mg 5,5-dithiobisnitrobenzoic acid (DTNB) (0.25 mM)
(b) 99 mg s-acetylthiocholine chloride (5 mM)
(§3) (c) q.s. to 100 ml with 0.05M phosphate buffer, pH 7.2 (reagent 1)
Male Wistar rats are decapitated, brains rapidly removed, corpora striata dissected free, weighed and homogenized in 19 volumes (approximately 7 mg protein/ml) of 0.05M phosphate buffer, pH 7.2 using a Potter-Elvehjem homogenizer. A 50 microliter aliquot of the homogenate is added to 50 microliter vehicle of various concentrations of the test drug and preincubated for 10 minutes at room temperature.
1. For routine IC50 determinations the Abbott Bichromatic Analyzer, ABA-100, is used to determine acetylcholinesterase activity.
Incubation temperature: 30° C.
Following the 10 minute preincubation of the tissue (enzyme) with the inhibitor, the samples are mixed with the substrate chromogen buffer by the ABA-100. Using the indicated instrument settings the ABA-100 automatically reads the color reaction and prints out the results in enzyme units after 15 minutes.
2. The enzyme activity can also be measured with Gilford 250 spectrophotometer. This method is used for more accurate kinetic measurments.
Reagents are added to the reference and sample side of a split curvette as follows.
The uninhibited activity of the enzyme (tissue homogenate) is first determined. Test drugs are made up in a suitable solvent and added in suitable dilutions to the buffer vehicle. The reaction rate is determined by the slope of the recorded absorbance change. The actual rate (moles/liter/min) can be calculated as described in the following formula
rate(moles/liter/min)=slope/(1.36×10^4).

[6] = target: T1, butyrylcholinesterase (Serum AChE); experiment: In Vitro Inhibition of Butyrylcholinesterase Activity in Human Serum; assay type: biochemical
From the text: as §1
This assay can be used in conjunction with the acetylcholinesterase assay to determine the enzyme selectivity of various chloinesterase inhibitors.
Butyrylcholinesterase (BChE), which is sometimes called pseudocholinesterase, preferentially hydrolyzes butyrylcholine. This enzyme is found in the highest amounts in serum, but its physiological role is not known.
as §2
(b) 113 mg s-butyrylthiochloine chloride (5 mM)
as §3
A vial of lyophilized human serum (Precilip, Biodynamics, Houston, Tex. is reconstituted in 3 ml of distilled water. A 10 microliter aliquot of this suspension is added to 90 microliter of the vehicle or various concentrations of the test drug and preincubated for 10 minutes at room temperature.
Substantially the same procedure is used as described above in Section C of the Procedure used for determining the inhibition of acetylcholinsterase activity.

[7] = system: tetrabenazine-induced ptosis; experiment: Prevention of Tetrabenazine-Induced Ptosis In Mice (TBZ); assay type: in vivo
From the text: Tetrabenazine (TBZ) induces behavioral depression with concomitant ptosis in mice similar to reserpine. Antidepressant compounds, both monoamineoxidase inhibitors and tricyclics, are known to prevent or antagonize these effects and the degree of antagonism correlates with clinical efficacy. The prevention of TBZ-induced ptosis in mice is used as a preliminary screen for possible antidepressant activity. The method used in this invention is as follows:
Male mice weighing 20 to 30 grams are used in test groups of five subjects. All compounds are dissolved or suspended with a suitable surfactant in distilled water and administered in volumes of 10 ml/kg of body weight. TBZ solution is made from the methanesulfonate salt and the concentration is adjusted to enable administration of 60 mg/kg of base by intraperitoneal (i.p.) injection.
The pretreatment time is measured from the time of dosing to observation. Therefore, when a […] pretreat is utilized, drug and TBZ are given simultaneously. A control group receives solvent and TBZ at intervals identical to drug group. For a primary screen, the drug is administered i.p. and a group size of five is utilized. Eight animals/group are used for a dose range.
Thirty minutes after TBZ, the subjects are placed in individual plastic containers (10.5×8×6 inches) in the presence of white noise and one minute after the transfer, they are scored for ptosis on the following scale: Eyes closed=4, eyes 3/4 closed=3, eyes 1/2 closed=2, eyes 1/4 closed=1, eyes open=0. The total score for each group of five in a primary screen will, therefore, be from 0 to 20 and these scores are used as indications of drug activity.
The vehicle control group score is used as a determinant of the validity of each test. If the control score is less than 17, the results are discarded and the test repeated. The calculation of percent inhibition of ptosis is: [formula]
Linear regression analysis is used to estimate ED50 values and 95% confidence intervals.

**Q.** For CN1CC[C@@]2(C)c3cc(OC(=O)Nc4ccncc4)ccc3N(C)[C@@H]12 [(3aS-cis)-1,2,3,3a,8,8a-Hexahydro-1,3a,8-trimethylpyrrolo[2,3-b]indol-5-ol,4-pyridinyl carbamate ester], which responders at 0.31 mg/kg [1] is on record?
**A.** 27%

**Q.** And the IC50 (norepinephrine uptake [2])?
**A.** > 20 µM

**Q.** And the LD50 at 24 h (Acute toxicity (LD50))?
**A.** ~40 mg/kg

**Q.** For COC(=O)[C@@H]1[C@H]2C[C@H]3c4[nH]c5ccccc5c4CCN3C[C@@H]2CC[C@@H]1O [yohimbine hydrochloride, reference compound], which “death in mice of yohimbine hydrochloride alone” value (yohimbine toxicity; 30 mg/kg s.c., alone (4 out of 400 mice)) is on record?
**A.** about 1%

**Q.** For C[C@@H]1O[C@@H](O[C@H]2C[C@@H](O)[C@]3(CO)[C@H]4[C@H](O)C[C@]5(C)[C@@H](C6=CC(=O)OC6)CC[C@]5(O)[C@@H]4CC[C@]3(O)C2)[C@H](O)[C@H](O)[C@H]1O [ouabain], which “inhibition of NE uptake” value (norepinephrine uptake [3]) is on record?
**A.** inhibited

**Q.** Which “selectivity of inhibition of butyrylcholinesterase” value [4] does the source give for CC(C)NP(=O)(NC(C)C)OP(=O)(NC(C)C)NC(C)C [ISO-OMPA, tetraisopropyl pyrophosphoramide] here?
**A.** selective inhibitors of butyrylcholinesterase

**Q.** What about the “cholinomimetic effects correlated with butyrylcholinesterase inhibition” value (butyrylcholinesterase) of the same molecule?
**A.** not correlated with any significant acute chloinomimetic effects

**Q.** What does the source list for CN1CC[C@@]2(C)c3cc(OC(=O)NC4CCCCC4)ccc3N(C)[C@@H]12 [(3aS-cis)-1,2,3,3a,8,8a-Hexahydro-1,3a,8-trimethylpyrrolo[2,3-b]indol-5-ol,cyclohexyl carbamate ester]?
**A.** IC50 [5]: 0.9 µM; IC50 [6]: > 1000 µM; responders at 0.16 mg/kg [1]: 31%; % Inhibition, TBZ ([7]; 1.25 mg/kg): 20%; LD50 (Acute toxicity (LD50)): < 10 mg/kg; LD50 at 24 h (Acute toxicity (LD50)): > 5 mg/kg

**Q.** For COC(=O)[C@H]1[C@@H](OC(=O)c2ccccc2)C[C@@H]2CC[C@H]1N2C [cocaine], which “inhibition of NE uptake” value (norepinephrine uptake [3]) is on record?
**A.** potently inhibited

**Q.** With C[C@H](NC(=O)Oc1ccc2c(c1)[C@]1(C)CCN(C)[C@@H]1N2C)c1ccccc1 (relative stereo) [(3aS-cis)-1,2,3,3a,8,8a-Hexahydro-1,3a,8-trimethylpyrrolo[2,3-b]indol-5-ol,[(S*)-(1-phenyl)ethyl] carbamate ester] as the molecule, how does the IC50 [5] read?
**A.** 3.1 µM

**Q.** And the IC50 [6]?
**A.** > 1000 µM

**Q.** What about the responders at 0.31 mg/kg [1] of the same molecule?
**A.** 20%

**Q.** What about the “% Inhibition, TBZ” value ([7]; 20 mg/kg) of the same molecule?
**A.** 35%

**Q.** And the ED50 (yohimbine toxicity)?
**A.** 30 mg/kg

**Q.** What about the IC50 (norepinephrine uptake [2]) of the same molecule?
**A.** 2.2 µM

**Q.** And the LD50 (Acute toxicity (LD50))?
**A.** < 80 mg/kg

**Q.** What about the LD50 at 24 h (Acute toxicity (LD50)) of the same molecule?
**A.** > 40 mg/kg

**Q.** For CC(COc1ccccc1)N(CCCl)Cc1ccccc1 (centres unmarked) [phenoxybenzamine], which “inhibition of NE uptake” value (norepinephrine uptake [3]) is on record?
**A.** inhibited

**Q.** For CCN(CC)C(C)CN1c2ccccc2Sc2ccccc21 (centres unmarked) [Ethopropazine], which “selectivity of inhibition of butyrylcholinesterase” value [4] is on record?
**A.** selective inhibitors of butyrylcholinesterase

**Q.** For CN1CC[C@@]2(C)c3cc(OC(=O)Nc4cccc(Cl)c4)ccc3N(C)[C@@H]12 [(3aS-cis)-1,2,3,3a,8,8a-Hexahydro-1,3a,8-trimethylpyrrolo[2,3-b]indol-5-ol,3-chlorophenyl carbamate ester], which IC50 [5] is on record?
**A.** 0.6 µM

**Q.** What about the IC50 [6] of the same molecule?
**A.** > 1000 µM

**Q.** What about the responders at 5 mg/kg [1] of the same molecule?
**A.** 20%

**Q.** What about the “% Inhibition, TBZ” value ([7]; 60 mg/kg) of the same molecule?
**A.** 45%

**Q.** And the “% Inhibition, YTP” value (yohimbine toxicity; mice, oral, 80 mg/kg)?
**A.** 63%

**Q.** What about the IC50 (norepinephrine uptake [2]) of the same molecule?
**A.** 1.8 µM

**Q.** And the LD50 at 24 h (Acute toxicity (LD50))?
**A.** > 80 mg/kg

**Q.** What does the source list for C[C@@H](NC(=O)Oc1ccc2c(c1)[C@]1(C)CCN(C)[C@@H]1N2C)c1ccccc1 (relative stereo) [(3aS-cis)-1,2,3,3a,8,8a-Hexahydro-1,3a,8-trimethylpyrrolo[2,3-b]indol-5-ol,[(R*)-(1-phenyl)ethyl] carbamate ester]?
**A.** IC50 [5]: 1.2 µM; IC50 [6]: 0.9 µM; responders at 1.25 mg/kg [1]: 67%; % Inhibition, TBZ ([7]; 20 mg/kg): 50%; ED50 (yohimbine toxicity): 16.1 mg/kg; IC50 (norepinephrine uptake [2]): 12 µM; LD50 at 24 h (Acute toxicity (LD50)): ~40 mg/kg
